“And” between values parts separate entries of the source, which are not always exact repeats. Identical values can stand only once. The source made the active and inactive calls. No cut-off for these calls is given here.
Tests used:
Cricetinae gen. sp. [1] = test: In vivo triglyceride lowering activity in fat-fed hamsters at a dose of 3 mg/kg, po for 7 days; type: functional
[2] = target: T1, Peroxisome proliferator-activated receptor delta (Homo sapiens, UniProt Q03181); test: In vitro transcriptional activation in CV-1 cells expressing human Gal4-PPAR delta ligand binding domain; type: cell-based
T1 sequence (Q03181 whole entry): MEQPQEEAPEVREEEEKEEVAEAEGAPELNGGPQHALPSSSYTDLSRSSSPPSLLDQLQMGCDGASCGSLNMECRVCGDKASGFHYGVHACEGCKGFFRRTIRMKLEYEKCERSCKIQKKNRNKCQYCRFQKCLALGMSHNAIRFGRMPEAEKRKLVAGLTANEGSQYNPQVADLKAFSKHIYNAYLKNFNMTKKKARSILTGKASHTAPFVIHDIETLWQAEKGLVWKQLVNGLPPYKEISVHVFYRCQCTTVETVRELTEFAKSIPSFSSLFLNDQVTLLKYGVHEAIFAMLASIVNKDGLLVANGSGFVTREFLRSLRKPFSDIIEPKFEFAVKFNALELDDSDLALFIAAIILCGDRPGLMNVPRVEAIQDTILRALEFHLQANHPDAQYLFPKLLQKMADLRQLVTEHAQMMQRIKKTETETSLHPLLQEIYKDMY

[3] = target: T2, Peroxisome proliferator-activated receptor gamma (Homo sapiens, UniProt P37231); test: In vitro transcriptional activation in CV-1 cells expressing human Gal4-PPAR gamma ligand binding domain; type: cell-based
T2 sequence (P37231 whole entry): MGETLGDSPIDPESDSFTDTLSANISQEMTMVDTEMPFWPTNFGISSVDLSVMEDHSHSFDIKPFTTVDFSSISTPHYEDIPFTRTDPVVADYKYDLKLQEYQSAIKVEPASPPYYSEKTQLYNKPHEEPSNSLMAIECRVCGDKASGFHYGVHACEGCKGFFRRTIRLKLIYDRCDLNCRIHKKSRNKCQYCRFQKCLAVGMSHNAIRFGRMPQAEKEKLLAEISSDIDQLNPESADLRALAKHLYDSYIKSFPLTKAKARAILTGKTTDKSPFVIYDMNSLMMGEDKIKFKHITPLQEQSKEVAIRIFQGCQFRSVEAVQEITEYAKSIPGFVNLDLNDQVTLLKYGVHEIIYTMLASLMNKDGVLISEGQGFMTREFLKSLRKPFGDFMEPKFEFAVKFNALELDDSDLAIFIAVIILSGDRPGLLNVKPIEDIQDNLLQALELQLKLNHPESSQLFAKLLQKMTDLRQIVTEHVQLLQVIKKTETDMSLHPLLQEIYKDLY

[4] = target: T3, Peroxisome proliferator-activated receptor alpha (Homo sapiens, UniProt Q07869)
T3 sequence (Q07869 whole entry): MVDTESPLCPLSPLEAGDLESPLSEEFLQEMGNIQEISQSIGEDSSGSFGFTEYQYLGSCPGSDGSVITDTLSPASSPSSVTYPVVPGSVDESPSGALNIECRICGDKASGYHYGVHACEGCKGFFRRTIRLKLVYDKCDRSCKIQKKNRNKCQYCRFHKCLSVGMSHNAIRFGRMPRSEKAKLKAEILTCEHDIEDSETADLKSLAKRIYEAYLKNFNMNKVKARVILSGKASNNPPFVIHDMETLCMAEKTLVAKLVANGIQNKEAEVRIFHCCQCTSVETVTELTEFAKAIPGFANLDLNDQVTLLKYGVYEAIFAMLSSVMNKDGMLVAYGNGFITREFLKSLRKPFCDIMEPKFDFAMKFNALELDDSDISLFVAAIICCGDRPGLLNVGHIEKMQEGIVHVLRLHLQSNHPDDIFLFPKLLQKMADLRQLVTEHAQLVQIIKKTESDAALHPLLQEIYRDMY
Description: In vitro transcriptional activation in CV-1 cells expressing human Gal4-PPAR alpha ligand binding domain

Cricetinae gen. sp. [5] = test: In vivo triglyceride lowering activity in fat-fed hamsters at a dose of 3 mg/kg, po for 7 days; not active; type: functional, organism-based; set-up: dose 3 mg/kg; conditions: Cricetulus griseus
Rattus norvegicus [6] = test: In vivo increase in HDL cholesterol in cholesterol/cholic acid fed rats at 3 mg/kg peroral dose for 4 days; type: functional; conditions: route oral
Rattus norvegicus [7] = test: In vivo decrease in serum apolipoprotein CIII in cholesterol/cholic acid fed rats at 3 mg/kg peroral dose for 4 days; type: functional; set-up: scale not given: the % may be the effect or the level left; conditions: route oral
Rattus norvegicus [8] = test: In vivo triglyceride lowering activity in cholesterol/cholic acid fed rats at 3 mg/kg peroral dose for 4 days; type: functional; conditions: route oral

EC50 [2]	EC50 [3]	EC50 [4]	Structure (SMILES)	Activity (Cricetinae gen. sp. [1]) [%]	Activity (Cricetinae gen. sp. [5])	Activity (Rattus norvegicus [6]) [%]	Activity (Rattus norvegicus [7]) [%]	Activity (Rattus norvegicus [8]) [%]
5 µM	2.4 µM	0.008 µM	CC(C)(Sc1ccc(CCN(CCc2ccc(-c3ccccc3)cc2)C(=O)NC2CCCCC2)cc1)C(=O)O	-70				
> 10 µM	1 µM	0.009 µM	CC(C)(Sc1ccc(CCN(CCCCC2CCCCC2)C(=O)Nc2cccc(C#N)c2)cc1)C(=O)O	-69				
> 10 µM	1.35 µM	0.009 µM	Cc1cc(C)c(NC(=O)N(CCc2ccc(SC(C)(C)C(=O)O)cc2)CCc2ccc(-c3ccccc3)cc2)cc1C		inactive			
			CCCCCCCN(CCc1ccc(SC(C)(C)C(=O)O)cc1)C(=O)Nc1ccc(F)cc1F [GSK-9578]	-88				
> 10 µM	1 µM	0.001 µM	CC(C)(Sc1ccc(CCN(CCCCC2CCCCC2)C(=O)Nc2cc(Cl)cc(Cl)c2)cc1)C(=O)O		inactive			
4 µM	1.2 µM	0.006 µM	COc1ccc(NC(=O)N(CCc2ccc(SC(C)(C)C(=O)O)cc2)CCc2ccc(-c3ccccc3)cc2)c(OC)c1		inactive			
> 10 µM and 2 µM	8.5 µM and 1.4 µM	0.017 µM and 0.02 µM	CC(C)c1ccc(NC(=O)N(CCc2ccc(SC(C)(C)C(=O)O)cc2)CCc2ccc(-c3ccccc3)cc2)cc1		inactive			
> 10 µM	10 µM	0.1 µM	COc1ccc(C)cc1NC(=O)N(CCc1ccc(SC(C)(C)C(=O)O)cc1)CCc1ccc(-c2ccccc2)cc1	-33				
			CC(C)(Sc1ccc(CCN(CCCCC2CCCCC2)C(=O)NC2CCCCC2)cc1)C(=O)O [GW7647]	-93		60	40	60
> 10 µM	2 µM	0.05 µM	CC(C)(Sc1ccc(CCN(CCc2ccc(-c3ccccc3)cc2)C(=O)Nc2cc(Cl)cc(Cl)c2)cc1)C(=O)O		inactive			
> 10 µM	2 µM	0.02 µM	Cc1ccc(NC(=O)N(CCCCC2CCCCC2)CCc2ccc(SC(C)(C)C(=O)O)cc2)cc1[N+](=O)[O-]	-78				

Structure (SMILES)	EC50 [2]	EC50 [3]	EC50 [4]	Activity (Cricetinae gen. sp. [1]) [%]	Activity (Cricetinae gen. sp. [5])	Activity (Rattus norvegicus [6]) [%]	Activity (Rattus norvegicus [7]) [%]	Activity (Rattus norvegicus [8]) [%]
COc1ccccc1NC(=O)N(CCCCC1CCCCC1)CCc1ccc(SC(C)(C)C(=O)O)cc1	1.1 µM	0.32 µM	0.005 µM		inactive			

— ChEMBL document CHEMBL1134264, “Identification of a subtype selective human PPARalpha agonist through parallel-array synthesis” (Bioorg Med Chem Lett, 2001)
